Data reported in ChEMBL document CHEMBL1155865, “Discovery of triazolinone non-nucleoside inhibitors of HIV reverse transcriptase” (Bioorg Med Chem Lett, 2008).
Values after ≈ are worked out from the molar mass of the structure shown. Active and inactive are the calls of the source. The rule behind the calls is not given here.

Legend:
[1] = molecular target: T1, Human immunodeficiency virus type 1 reverse transcriptase (Human immunodeficiency virus 1, UniProt Q72547); test: (§1) Binding affinity to wild type HIV1 reverse transcriptase by SPR assay
[2] = molecular target: T1, Human immunodeficiency virus type 1 reverse transcriptase; test: Inhibition of wild type HIV1 reverse transcriptase polymerase activity by scintillation counting assay
[3] = tested on: Human immunodeficiency virus 1; test: Antiviral activity against HIV1 with wild type reverse transcriptase in MT4 cells assessed as inhibition of virus-induced cytopathic effect; format: functional, organism-based; settings: Human immunodeficiency virus 1, MT4
[4] = tested on: Human immunodeficiency virus 1; test: Antiviral activity against HIV1 with reverse transcriptase K103N/Y181C mutant in MT4 cells assessed as inhibition of virus-induced cytopathic effect; format: functional, organism-based; settings: Human immunodeficiency virus 1, MT4
[5] = AUC (0 to infinity) in dog at 0.5 mg/kg, iv or 2 mg/kg, po; format: ADME, organism-based, Canis lupus familiaris; settings: plasma
[6] = Bioavailability in dog at 2 mg/kg, po; format: ADME, organism-based, Canis lupus familiaris; settings: in vivo
[7] = Clearance in dog at 0.5 mg/kg, iv or 2 mg/kg, po; format: ADME, organism-based, Canis lupus familiaris; settings: in vivo
[8] = Solubility of compound at pH 6.5; format: physicochemical; settings: buffer
[9] = tested on: Human immunodeficiency virus 1; test: Antiviral activity against HIV1 with reverse transcriptase Y181C mutant in MT4 cells assessed as inhibition of virus-induced cytopathic effect; format: functional, organism-based; settings: Human immunodeficiency virus 1, MT4
Caco-2 = test: Apparent permeability across human Caco-2 cells; format: ADME, cell-based
[10] = tested on: Human immunodeficiency virus 1; test: Antiviral activity against HIV1 with reverse transcriptase […] mutant in MT4 cells assessed as inhibition of virus-induced cytopathic effect; format: functional, organism-based; settings: Human immunodeficiency virus 1, MT4
[11] = Cmax in dog at 0.5 mg/kg, iv or 2 mg/kg, po; format: ADME, organism-based, Canis lupus familiaris; settings: in vivo
[12] = tested on: Human immunodeficiency virus 1; test: Antiviral activity against HIV1 with reverse transcriptase K103N/L100I mutant in MT4 cells assessed as inhibition of virus-induced cytopathic effect; format: functional, organism-based; settings: Human immunodeficiency virus 1, MT4
[13] = molecular target: Human immunodeficiency virus type 1 reverse transcriptase (Human immunodeficiency virus 1) (UniProt Q72547); test: as §1
Liver microsomes = test: Clearance in rat liver microsome per mg of protein; format: ADME
Cytochrome P450 3A4 = Cytochrome P450 3A4 (Homo sapiens, UniProt P08684); test: Inhibition of CYP3A4; format: ADME
Cytochrome P450 3A4, sequence (P08684 whole entry): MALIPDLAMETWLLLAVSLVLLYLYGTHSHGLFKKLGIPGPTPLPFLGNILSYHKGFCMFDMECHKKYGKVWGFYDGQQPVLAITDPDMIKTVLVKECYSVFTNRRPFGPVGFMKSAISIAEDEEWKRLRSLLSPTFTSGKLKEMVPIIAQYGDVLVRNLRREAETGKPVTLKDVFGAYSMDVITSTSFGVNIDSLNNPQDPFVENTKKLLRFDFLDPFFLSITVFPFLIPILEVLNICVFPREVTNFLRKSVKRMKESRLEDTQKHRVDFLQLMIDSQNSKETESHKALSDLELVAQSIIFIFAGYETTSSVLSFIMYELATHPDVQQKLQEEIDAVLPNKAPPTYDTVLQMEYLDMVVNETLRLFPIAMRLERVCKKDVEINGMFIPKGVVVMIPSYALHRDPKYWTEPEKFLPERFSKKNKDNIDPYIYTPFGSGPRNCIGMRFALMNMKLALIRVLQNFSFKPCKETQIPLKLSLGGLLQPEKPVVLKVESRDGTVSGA

| SMILES | IC50 [2] [µM] | EC50 [3] [µM] | EC50 [4] [µM] | other results |
| --- | --- | --- | --- | --- |
| CCc1ccc(Cc2n[nH]c(=O)n2C)c(F)c1Oc1cc(Cl)cc(C#N)c1 |  | 0.002 | 0.004 |  |
| Cn1c(Cc2ccc(Br)c(Oc3cc(Cl)cc(C#N)c3)c2F)n[nH]c1=O | 0.005 | 0.002 | 0.009 | AUC(0-inf) [5]: 38.4 µM·h; bioavailability [6]: 74%; clearance [7]: 1.5 mL/min/kg; Kd [1]: 0.004 µM; solubility [8]: 2.4 µg/mL (≈ 5.48 µM); EC50 [9]: 0.005 µM; Papp (Caco-2): 15.1 10^-6 cm/s; EC50 [10]: 0.001 µM; Cmax [11]: 1300 nM |
| O=c1[nH]nc(Cc2ccc(Cl)c(Oc3cccc(Br)c3)c2)s1 | 0.53 |  |  |  |
| Cn1c(Cc2ccc(Cl)c(Oc3cc(Cl)cc(C#N)c3)c2F)n[nH]c1=O | 0.011 | 0.008 | 0.039 |  |
| Cc1cc(Cc2ccc(Cl)c(Oc3cc(Cl)cc(C#N)c3)c2F)n[nH]c1=O |  | 0.001 | 0.019 | EC50 [12]: 0.004 µM |
| CC1OC(Cc2ccc(Cl)c(Oc3cccc(Br)c3)c2)=NNC1=O (stereo not given) | 0.05 |  |  |  |
| Cn1c(Cc2ccc(C3CC3)c(Oc3cc(Cl)cc(C#N)c3)c2F)n[nH]c1=O |  | 0.002 | 0.011 |  |
| C[C@H]1NC(Cc2ccc(Cl)c(Oc3cc(Cl)cc(C#N)c3)c2F)=NNC1=O | 0.011 | 0.008 | 0.072 | clearance (Liver microsomes): 130 µL/min/mg |
| Cn1c(Cc2cccc(Oc3ccccc3)c2)n[nH]c1=O | 18 |  |  | Kd [1]: 3 µM |
| Cc1ccc(Cc2n[nH]c(=O)n2C)c(F)c1Oc1cc(Cl)cc(C#N)c1 |  | 0.002 | 0.026 | IC50 (Cytochrome P450 3A4): 12 µM |
| CC1OC(Cc2ccc(Cl)c(Oc3cc(Cl)cc(C#N)c3)c2F)=NNC1=O (stereo not given) | 0.013 | 0.005 | 0.034 | IC50 (Cytochrome P450 3A4): 0.27 µM |

More lines, main results first:

| IC50 [2] [µM] | SMILES | EC50 [3] [µM] | EC50 [4] [µM] | other results |
| --- | --- | --- | --- | --- |
| 34 | COc1c(Br)ccc(Cc2n[nH]c(=O)n2C)c1F |  |  | Kd [1]: 4 µM |
| > 10 | Cn1c(Cc2ccc(Br)cc2F)n[nH]c1=O |  |  | Kd [1]: 102 µM |
| 0.017 | C[C@H]1CC(Cc2ccc(Cl)c(Oc3cc(Cl)cc(C#N)c3)c2F)=NNC1=O | 0.032 |  |  |
| > 100 | Cn1c(Cc2ccc(Br)cc2)n[nH]c1=O |  |  | Kd [1]: 388 µM |
| > 100 | Cn1c(Cc2ccccc2)n[nH]c1=O |  |  | Activity [13]: inactive |
| 0.33 | Cc1nc(Cc2ccc(Cl)c(Oc3cccc(Br)c3)c2)n[nH]c1=O |  |  |  |
| 0.15 | CN1CC(Cc2ccc(Cl)c(Oc3cccc(Br)c3)c2)=NNC1=O |  |  |  |
| > 100 | Cc1n[nH]c(=O)n1C |  |  | Activity [13]: inactive |
| 0.23 | CN(C)c1cc(Cc2ccc(Cl)c(Oc3cccc(Br)c3)c2)n[nH]c1=O |  |  |  |
| 0.13 | Cc1cc(Cc2ccc(Cl)c(Oc3cccc(Br)c3)c2)n[nH]c1=O |  |  |  |
| 0.69 | Cn1c(Cc2ccc(Cl)c(Oc3cccc(Br)c3)c2)n[nH]c1=O |  |  |  |
| 5.8 | O=c1[nH]nc(Cc2ccc(Cl)c(Oc3cccc(Br)c3)c2)o1 |  |  |  |
